This passage reports viability, T/C and IC50 results from PubChem BioAssay AID2060328 (Molecular Pharmacology Branch, DTP, NCI, 2025).

The experiment has as its system MDA-MB-231 multicell spheroids, viability (%T/C). In words: Anticancer human tumor MDA-MB-231 cell line growth inhibition [IpAb].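 As to all read-outs here: viability read after seven days of drug exposure.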 The settings on record: for viability, T/C: stronger effect = lower value. The text has this: Combinatorial screen of targeted agents with ipatasertib and abemaciclib in multi-cell type tumor spheroids
A high-throughput screen of multi-cell type tumor spheroids was designed to identify active combinations of targeted small molecules and ipatasertib or abemaciclib. Complex spheroids include a stromal component modeled by human endothelial cells (HUVEC) and fibroblasts modeled by human mesenchymal stem cells (MSCs). The concentration ranges selected for each drug and investigational agent were based upon clinically achievable concentrations if the clinical Cmax of the agent was known.
Compounds. The drugs and investigational agents: ipatasertib (NSC767898), abemaciclib(NSC768073), selumetinib (NSC741078), trametinib (758246), adavosertib (NSC754352), everolimus (NSC733504), sapanisertib (NSC764658), vemurafenib (NSC761431), venetoclax (NSC766270), copanlisib (NSC809693), apelisib (NSC765974), palbociblib (NSC758247), vemurafenib (NSC761431), dabrafenib (NSC764134), ravoxertinib (NSC781343), BMS-387032 (NSC767048), sotorasib (NSC818433), talazoparib (NSC767125) and afursertib (NSC778305), were obtained from the National Cancer Institute (NCI) Developmental Therapeutics Program Chemical Repository. The FDA-approved anticancer drug set is available from the NCI Developmental Therapeutics Program. […] The stock solutions were prepared in dimethyl sulfoxide (DMSO, Sigma-Aldrich, St. Louis, MO, cat. D2650) at 800-fold the tested concentration and stored at -70 degrees C prior to their use. All drugs and investigational agents were tested over a range starting from a high concentration at or near the clinical Cmax and decreasing in half-log increments. If the clinical Cmax for an agent had not been determined, the highest concentration tested was 10 microM.
NCI60 Cell Culture. NCI60 cell lines were obtained from the NCI Developmental Therapeutics Program Tumor Repository. For each lot of cells, the Repository performed Applied Biosystems AmpFLSTR Identifiler testing with PCR amplification to confirm consistency with the published Identifier STR profile for each cell line. Cells were kept in continuous culture for no more than 20 passages. The optimal seeding densities for each of the cell lines at each time point assessed were determined prior to performing the concentration response studies. Briefly, the NCI60 human tumor lines were grown as monolayers in RPMI 1640 medium supplemented with 10% FBS and 2 mmol/L L-glutamine.
An additional 9 lines were from the NCI60 cell line panel including MDA-MB-231 breast carcinoma, MDA-MB-468 breast carcinoma, MCF7 breast carcinoma, Hs578T breast carcinoma, MALME-3M melanoma, SK-MEL-2 melanoma, SK-OV-3 ovarian carcinoma, DU-145 prostate carcinoma, PC-3 prostate carcinoma, all cell lines along with major genetic alterations are listed on Table 2. Pooled donor human umbilical vein endothelial cells (HUVEC, Lonza, cat. CC-2519) and human mesenchymal stem cells (hMSC, Lonza, cat. PT-2501) were purchased from Lonza (Walkersville, MD).
PDMR cell lines were grown in complete medium (DC medium): Dulbecco's modified Eagle's medium (DMEM)/F12 supplemented with 5% fetal bovine serum (FBS), 2 mM L-glutamine, 100 U/mL penicillin and 100 µg/ml streptomycin, 0.4 µg/ml hydrocortisone, 10 ng/ml epidermal growth factor (EGF) recombinant human protein, 24 µg/mL adenine, and 0.1 mg/mL primocin. During culture from frozen stock vials, PDMR cells were cultured in the same medium containing 10 µM Y-27632 (see Table 3). The PDCs were cultured in complete DMEM/F12 media without 10 microM Y-27632 dihydrochloride for at least two passages prior to the screen. The pooled donor HUVEC and hMSC were cultured in endothelial cell growth medium 2 (PromoCell, Heidelberg, Germany, cat. C-22011) and mesenchymal stem cell growth medium 2 (PromoCell, cat. C-28009), respectively. For all experiments, HUVEC and hMSC were used at passages </=5.
[…]

Where [1] appears, read: curve of first compound, second compound 0.1 µM.
[2] abbreviates: curve of first compound, second compound 0.316 µM.
Where [3] appears, read: curve of first compound, second compound 1 µM.
The mark [4] stands for this setting: second compound 0.1 µM, first compound 0.0316 µM.
The mark [5] stands for this setting: second compound 0.1 µM, first compound 0.1 µM.
Setting [6] is: second compound 0.316 µM, first compound 0.0316 µM.
Where [7] appears, read: second compound 0.316 µM, first compound 0.1 µM.
The mark [8] stands for this setting: second compound 1 µM, first compound 0.0316 µM.
Setting [9] is: second compound 1 µM, first compound 0.1 µM.

The viability, T/C is the result in the treated group divided by that in the control group, in per cent. Usually IC50 stands for the concentration needed to halve the response being measured.

Where “and” joins values, the source holds several entries; their conditions need not be identical. Equal values may be shown once.

For the compound `C=CC(=O)N1CCN(c2nc(=O)n(-c3c(C)ccnc3C(C)C)c3nc(-c4c(O)cccc4F)c(F)cc23)C(C)C1` (centres undefined), the viability, T/C reads like this: (compound 0.0316 µM) 106% and 110%; (compound 0.1 µM) 111% and 109%; (compound 0.316 µM) 109% and 117%; (compound 1 µM) 124% and 140%; (compound 3.16 µM) 122% and 126%; (compound 10 µM) 82% and 84.4%. For the same compound, the IC50 (curve of compound) was greater than 10000 nM.

Turning to `Cn1ncnc1[C@H]1c2n[nH]c(=O)c3cc(F)cc(c23)N[C@@H]1c1ccc(F)cc1`, the viability, T/C reads like this: (compound 0.000316 µM) 99.2% and 96.9%; (compound 0.001 µM) 92.1% and 94%; (compound 0.00316 µM) 81.4% and 85.3%; (compound 0.01 µM) 79.3% and 79.6%; (compound 0.0316 µM) 77.7% and 75.4%; (compound 0.1 µM) 67.3% and 69.8%. For the same compound, the IC50 (curve of compound) was greater than 100 nM.

In the case of `C=CCn1c(=O)c2cnc(Nc3ccc(N4CCN(C)CC4)cc3)nc2n1-c1cccc(C(C)(C)O)n1` + CC(C)NCC(C(=O)N1CCN(c2ncnc3c2C(C)CC3O)CC1)c1ccc(Cl)cc1, the IC50 under setting [1] came out at 219 nM; the IC50 under setting [2] was 188 nM; the IC50 under setting [3] was determined as 170 nM; the IC50 (curve of first compound, second compound 3.16 µM) was 91.4 nM; the IC50 (curve of first compound, second compound 10 µM) was less than 31.6 nM. The viability, T/C is, setting by setting: under setting [4], 93%; under setting [5], 86.6%; (second compound 0.1 µM, first compound 0.316 µM) 32.9%; (second compound 0.1 µM, first compound 1 µM) 17.8%; (second compound 0.1 µM, first compound 3.16 µM) 16.4%; (second compound 0.1 µM, first compound 10 µM) 20.5%. The viability, T/C by setting is: under setting [6], 92.5%; under setting [7], 74.4%; (second compound 0.316 µM, first compound 0.316 µM) 30.1%; (second compound 0.316 µM, first compound 1 µM) 17.3%; (second compound 0.316 µM, first compound 3.16 µM) 15.3%; (second compound 0.316 µM, first compound 10 µM) 19.6%. The viability, T/C reads like this: under setting [8], 76.7%; under setting [9], 68.4%; (second compound 1 µM, first compound 0.316 µM) 28.3%; (second compound 1 µM, first compound 1 µM) 16.7%; (second compound 1 µM, first compound 3.16 µM) 15.5%; (second compound 1 µM, first compound 10 µM) 17.4%. The viability, T/C by setting is: (second compound 3.16 µM, first compound 0.0316 µM) 60.6%; (second compound 3.16 µM, first compound 0.1 µM) 48.8%; (second compound 3.16 µM, first compound 0.316 µM) 26.2%; (second compound 3.16 µM, first compound 1 µM) 15.1%; (second compound 3.16 µM, first compound 3.16 µM) 14.6%; (second compound 3.16 µM, first compound 10 µM) 16.9%. Further, the viability, T/C by setting is: (second compound 10 µM, first compound 0.0316 µM) 44.6%; (second compound 10 µM, first compound 0.1 µM) 32.5%; (second compound 10 µM, first compound 0.316 µM) 21.2%; (second compound 10 µM, first compound 1 µM) 15.3%; (second compound 10 µM, first compound 3.16 µM) 15%; (second compound 10 µM, first compound 10 µM) 16.6%.

With `Cn1ncnc1[C@H]1c2n[nH]c(=O)c3cc(F)cc(c23)N[C@@H]1c1ccc(F)cc1` + CCN1CCN(Cc2ccc(Nc3ncc(F)c(-c4cc(F)c5nc(C)n(C(C)C)c5c4)n3)nc2)CC1, the IC50 (curve of first compound, second compound 0.01 µM) is greater than 100 nM; the IC50 (curve of first compound, second compound 0.0316 µM) was greater than 100 nM; the IC50 under setting [1] came out at 37.6 nM; the IC50 under setting [2] is less than 0.316 nM; the IC50 under setting [3] was less than 0.316 nM. The viability, T/C reads like this: (second compound 0.01 µM, first compound 0.000316 µM) 86.5%; (second compound 0.01 µM, first compound 0.001 µM) 85.5%; (second compound 0.01 µM, first compound 0.00316 µM) 79.6%; (second compound 0.01 µM, first compound 0.01 µM) 70.9%; (second compound 0.01 µM, first compound 0.0316 µM) 69.2%; (second compound 0.01 µM, first compound 0.1 µM) 65.9%. For the same compound, the viability, T/C was 74.8% (second compound 0.0316 µM, first compound 0.000316 µM); 72.1% (second compound 0.0316 µM, first compound 0.001 µM); 65.2% (second compound 0.0316 µM, first compound 0.00316 µM); 60% (second compound 0.0316 µM, first compound 0.01 µM); 59.1% (second compound 0.0316 µM, first compound 0.0316 µM); 55% (second compound 0.0316 µM, first compound 0.1 µM). In addition, the viability, T/C is 58.8% (second compound 0.1 µM, first compound 0.000316 µM); 56.4% (second compound 0.1 µM, first compound 0.001 µM); 51.5% (second compound 0.1 µM, first compound 0.00316 µM); 51.1% (second compound 0.1 µM, first compound 0.01 µM); 51.5% under setting [4]; 48.7% under setting [5]. The viability, T/C (second compound 0.316 µM, first compound 0.000316 µM) was 46.5%; the viability, T/C (second compound 0.316 µM, first compound 0.001 µM) is 46.6%; the viability, T/C (second compound 0.316 µM, first compound 0.00316 µM) is 43.9%; the viability, T/C (second compound 0.316 µM, first compound 0.01 µM) is 43.3%; the viability, T/C under setting [6] is 42.9%; the viability, T/C under setting [7] is 40.4%. In addition, the viability, T/C by setting is: (second compound 1 µM, first compound 0.000316 µM) 48%; (second compound 1 µM, first compound 0.001 µM) 49.3%; (second compound 1 µM, first compound 0.00316 µM) 50.2%; (second compound 1 µM, first compound 0.01 µM) 46.3%; under setting [8], 48.5%; under setting [9], 46.9%.
